From patent publication US6656942B2, “Orally active salts with tyrosine kinase activity” (Merck & Co., Inc., priority 2000, dated 2003)
Structures can show the parent of a compound that is named as a salt.

Experiment: Solubility of HCl salt 1-11D suspended in solvents for 7 days at room temperature
Type: physicochemical
Details: RT for 7 days
Protocol: HCl salt 1-11D is also crystalline as witnessed by the X-ray powder diffraction pattern of the material, having multiple diffraction peaks between 5° and 30° 2-theta. […] (rate of 10° C./min). The compound is birefringent under plane polarized light. It is needle-shaped particles of approximately 5-25 micron. The solubility of salt 1-11D was measured in water and various organic solvents. Table VI below summarizes the solubility of the 1-11D suspended in various solvents for 7 days at room temperature.

CS(=O)(=O)N1CCN(Cc2ccc3[nH]c(-c4cc5ccccc5[nH]c4=O)cc3c2)CC1 [Salt 1-11D]
solubility (Aqueous ETOH): 4340 µg/mL
solubility (Aqueous IPA): 3990 µg/mL
solubility (Ethanol): 130 µg/mL
solubility (Isopropanol): 57 µg/mL
solubility (Water): 620 µg/mL
